Assay results published in the Deep4Chem optical property database.
Each block holds one molecule with its values, some of them ahead of it.

Test: solvent given as SMILES

emission maximum (in C1CCOC1): 442 nm
SMILES: COc1cc2oc(=O)c3c4ccc(C=O)cc4c4ccc5cccc6c(c1)c2c3c4c56

emission maximum (in CO): 417 nm
SMILES: N[C@@H](Cn1nnc2cc(-c3ccc4ccccc4c3)ccc21)C(=O)O

emission maximum (in C1CCOC1): 525 nm
emission maximum (in CC#N): 599 nm
emission maximum (in CCCCCCC): 445 nm
emission maximum (in CS(C)=O): 609 nm
emission maximum (in ClCCl): 563 nm
SMILES: C(=C\c1ccncn1)/c1ccc(-c2ccc(N(c3ccccc3)c3ccccc3)cc2)cc1

emission maximum (in ClCCl): 443 nm
SMILES: c1cncc(-c2ccc(-c3c4ccc(-c5cccnc5)cc4c(-c4ccc(-c5cccnc5)cc4)c4ccc(-c5cccnc5)cc34)cc2)c1

SMILES: CCn1c2ccccc2c2cc(C#Cc3cc(C#Cc4ccc5c(c4)c4ccccc4n5CC)nc(OC)n3)ccc21
emission maximum (in C1CCOC1): 445 nm
emission maximum (in CCOC(C)=O): 442 nm
emission maximum (in CN(C)C=O): 499 nm
emission maximum (in Cc1ccccc1): 411 nm
emission maximum (in ClCCl): 467 nm

emission maximum (in ClCCl): 592 nm
SMILES: COc1ccc(C2=C(C)C3=C(c4c(-c5ccccn5)nc5ccccn45)c4c(C)cc(C)n4[B-](F)(F)[N+]3=C2C)cc1

emission maximum (in CO): 811 nm
SMILES: CC1(C)C(/C=C/C2=C(c3ccc(C(=O)O)cc3)C(=C/C=C3/N(CCCS(=O)(=O)[O-])c4ccc5ccccc5c4C3(C)C)/CCC2)=[N+](CCCS(=O)(=O)[O-])c2ccc3ccccc3c21

emission maximum (in CO): 601 nm
emission maximum (in ClC(Cl)Cl): 601 nm
SMILES: COCCN(CCOC)c1ccc(/C=C/c2sc3c4nc(C)sc4ccc3[n+]2C)cc1

SMILES: COc1ccc2c(c1)sc1[n+]2[B-](F)(F)OC(c2ccc(N(C)C)cc2)=N1
emission maximum (in C1CCOC1): 466 nm
emission maximum (in CC#N): 481 nm
emission maximum (in CC(C)=O): 477 nm
emission maximum (in Cc1ccccc1): 454 nm
emission maximum (in ClCCl): 467 nm

emission maximum (in ClCCl): 414 nm
SMILES: CC(C)(C)c1ccc2c(c1)c1ncncc1c1c3ccccc3sc21

emission maximum (in CO): 653 nm
emission maximum (in ClC(Cl)Cl): 664 nm
SMILES: CC[n+]1c(C=C2C(=O)C(C=C3N(C)c4ccc(Cl)cc4C3(C)C)=C2[O-])sc2ccccc21

emission maximum (in CCO): 468 nm
emission maximum (in ClC(Cl)Cl): 454 nm
SMILES: CCOc1ccc2c(-c3nc(-c4ccccc4)no3)cc(=O)oc2c1

emission maximum (in C1CCOC1): 748 nm
emission maximum (in CS(C)=O): 771 nm
emission maximum (in ClCCl): 735 nm
SMILES: COc1cc(OC)cc(C2=C3C(C)=C(I)C(/C=C/c4c[nH]c5ccccc45)=[N+]3[B-](F)(F)n3c(/C=C/c4c[nH]c5ccccc45)c(I)c(C)c32)c1

emission maximum (in ClC(Cl)Cl): 670 nm
SMILES: c1ccc(N(c2ccccc2)c2ccc(-c3ccc(-c4ccc(-c5cccs5)c5nsnc45)s3)cc2)cc1

emission maximum (in CO): 797 nm
SMILES: CC1(C)C(/C=C/C2=C(Oc3ccc(CCN=C=S)cc3F)C(=C/C=C3/N(CCCS(=O)(=O)[O-])c4ccccc4C3(C)C)/CCC2)=[N+](CCCS(=O)(=O)[O-])c2ccccc21

emission maximum (in C1CCCCC1): 404 nm
emission maximum (in CC#N): 413 nm
emission maximum (in CO): 410 nm
emission maximum (in ClCCl): 411 nm
SMILES: COc1c2ccccc2c(OC)c2c1c1ccc(F)cc1n2C

SMILES: Nc1ccc(C#Cc2ccc3ccc4ccc(C#Cc5ccc(N)cc5)c5ccc2c3c45)cc1
emission maximum (in C1COCCO1): 476 nm
emission maximum (in CC(C)=O): 538 nm
emission maximum (in CCCCCC): 444 nm
emission maximum (in CCCCCCO): 534 nm
emission maximum (in CCO): 540 nm
emission maximum (in CCOC(C)=O): 506 nm
emission maximum (in CO): 557 nm
emission maximum (in Cc1ccccc1): 463 nm
emission maximum (in ClCCl): 492 nm

emission maximum (in CC#N): 419.32 nm
emission maximum (in CO): 446.19 nm
SMILES: Cn1cc(/C=C/C(=O)c2ccccc2)c2ccccc21

emission maximum (in CS(C)=O): 517 nm
SMILES: CCOC(=O)C1=C(N)n2c(=O)c3ccccc3c(=O)n2C1c1ccc(C)cc1 (stereo not drawn)

SMILES: Cc1ccccc1[B-]1(c2ccccc2C)n2nc(C(F)(F)F)cc2-c2c3ccccc3cc[n+]21
emission maximum (in C1CCCCC1): 414 nm
emission maximum (in Cc1ccccc1): 414 nm
emission maximum (in ClCCl): 412 nm

emission maximum (in ClCCl): 580 nm
SMILES: COc1cccc(OC)c1-c1c2ccc(=[N+]3CCN(C(=O)OC(C)(C)C)CC3)cc-2oc2cc(N3CCN(C(=O)OC(C)(C)C)CC3)ccc12

emission maximum (in C1COCCO1): 364 nm
SMILES: c1ccc(-c2ccc(-c3cc(-c4ccc(-c5ccccc5)cc4)cc(-c4ccc(-c5ccccc5)cc4)c3)cc2)cc1
